# Test results from ChEMBL document CHEMBL3774370, “Structure-activity relationships (SAR) and structure-kinetic relationships (SKR) of sulphone-based CRTh2 antagonists” (Eur J Med Chem, 2016).
# Experiments:
# [1] = target: T1, Prostaglandin D2 receptor 2 (Homo sapiens, UniProt Q9Y5Y4); experiment: Displacement of [35S]-GTPgammaS from CRTH2 receptor (unknown origin) expressed in CHOK1 cell membrane after 1 hr by liquid scintillation counter; format: cell membranes, CHO-K1
# T1 sequence (Q9Y5Y4 whole entry): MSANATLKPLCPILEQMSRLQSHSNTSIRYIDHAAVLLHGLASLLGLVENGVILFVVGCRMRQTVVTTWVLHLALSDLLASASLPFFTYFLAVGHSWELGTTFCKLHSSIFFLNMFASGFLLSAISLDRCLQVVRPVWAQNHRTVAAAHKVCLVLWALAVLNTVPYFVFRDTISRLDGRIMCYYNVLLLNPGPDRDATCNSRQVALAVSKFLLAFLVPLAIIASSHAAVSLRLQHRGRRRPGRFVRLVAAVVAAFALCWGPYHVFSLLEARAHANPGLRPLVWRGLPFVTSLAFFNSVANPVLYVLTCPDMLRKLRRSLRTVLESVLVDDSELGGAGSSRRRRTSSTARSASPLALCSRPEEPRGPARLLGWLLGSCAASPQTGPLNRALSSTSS
# [2] = tested on: Prostaglandin D2 receptor 2, CRTh2 (Homo sapiens); experiment: Antagonist activity at CRTH2 receptor (unknown origin) expressed in CHOK1 cells assessed as dissociation half life measured up to 25 hrs by GTPgammaS assay; conditions: CHO-K1
# [3] = target: T2, Prostaglandin D2 receptor 2 (Homo sapiens) (UniProt Q9Y5Y4); experiment: Displacement of [35S]-GTPgammaS from CRTH2 receptor (unknown origin) expressed in CHOK1 cell membrane at 10 uM after 1 hr by liquid scintillation counter; format: cell membranes; conditions: CHO-K1
# T2 sequence (whole entry): T1 sequence (Q9Y5Y4 whole entry)
SMILES,IC50 [1] [nM],T1/2 [2] [h],inhibition [3] [%]
O=C(O)CN1c2cccnc2N(Cc2ccccc2S(=O)(=O)c2ccccc2)S1(=O)=O,1600,–,–
O=C(O)Cn1nc(Cc2ccccc2S(=O)(=O)c2ccccc2)c2ccccc2c1=O,–,–,< 25
O=C(O)Cn1nc(-c2ccccc2)cc(Cc2ccccc2S(=O)(=O)c2ccccc2)c1=O,–,–,< 25
O=C(O)Cc1ccc(=O)n(Cc2ccccc2S(=O)(=O)c2ccccc2)c1,10000,–,–
Cc1c(Cc2ccccc2S(=O)(=O)c2ccc(F)cc2)c2c(n1CC(=O)O)CCCC2,104,–,–
O=C(O)Cc1nc(Cc2ccccc2S(=O)(=O)c2ccccc2)n2ccccc12,3000,–,–
Cc1c(-c2ccccc2)n(CC(=O)O)c(=O)n1Cc1ccccc1S(=O)(=O)c1ccc(F)cc1,10000,–,–
O=C(O)Cc1cccn(Cc2ccccc2S(=O)(=O)c2ccccc2)c1=O,–,–,< 25
Cc1c(CC(=O)O)c(-c2ccccc2)nn1Cc1ccccc1S(=O)(=O)c1ccccc1,–,0.1,–
O=C(O)Cn1nc(-c2ccccc2)n(Cc2ccccc2S(=O)(=O)c2ccccc2)c1=O,–,–,< 25
Cc1c(Cc2ccccc2S(=O)(=O)c2ccccc2)c(=O)n(-c2ccccc2)n1CC(=O)O,970,–,–
O=C(O)Cn1c(-c2ccccc2)nn(Cc2ccccc2S(=O)(=O)c2ccccc2)c1=O,2400,–,–
O=C(O)Cc1cc(Cl)c(=O)n(Cc2ccccc2S(=O)(=O)c2ccccc2)c1,860,–,–

# Further compounds by falling IC50 [1], results first:
IC50 [1] [nM],T1/2 [2] [h],inhibition [3] [%],SMILES
85,–,–,Cc1c(Cc2ccccc2S(=O)(=O)c2ccccc2)c(-c2ccccc2)nn1CC(=O)O
65,0.04,–,O=C(O)Cc1nn(Cc2ccccc2S(=O)(=O)c2ccccc2)c(=O)c2ccccc12
47,0.05,–,O=C(O)Cc1cc(Cc2ccccc2S(=O)(=O)c2ccccc2)c2nc(C(F)(F)F)ccn12
28,–,–,Cc1c(CC(=O)O)c2ccncn2c1Cc1ccccc1S(=O)(=O)c1ccccc1
18,–,–,COc1ccc(S(=O)(=O)c2ccc(F)cc2)c(Cn2cc(CC(=O)O)c3ccc(C)nc32)c1
14,1.3,–,Cc1ccc2c(CC(=O)O)c(C)n(Cc3ccccc3S(=O)(=O)c3ccccc3)c2n1
14,1.3,–,Cc1c(Cc2ccccc2S(=O)(=O)c2ccccc2)c2cc(F)ccc2n1CC(=O)O
8,0.6,–,Cc1c(Cc2ccccc2S(=O)(=O)c2ccc(F)cc2)nc(-c2ccccc2)n1CC(=O)O
5,–,–,COc1ccc(S(=O)(=O)c2ccc(F)cc2)c(Cc2c(C)c(CC(=O)O)c3ccncn23)c1
4,13,–,COc1ccc(S(=O)(=O)c2ccc(F)cc2)c(Cn2c(C)c(CC(=O)O)c3ccc(C)nc32)c1
2,21,–,COc1ccc(S(=O)(=O)c2ccc(F)cc2)c(Cc2c3c(n(CC(=O)O)c2C)CCCC3=O)c1
2,21,–,Cc1c(Cc2ccccc2S(=O)(=O)c2ccc(F)cc2)c2c(n1CC(=O)O)CCCC2=O
